According to patent US20060241078A1, “Pharmaceutical compositions comprising a contraceptive agent in solution and a teratogen” (priority 2005, published 2006):

Test: Solubility of estrogen and progestin in solubilizing agents and oils (visual, dropwise solvent addition);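 further: about 10 mg estrogen or progestin titrated with solubilizing agent or oil, added dropwise with shaking until fully dissolved, completion judged by eye under light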
[1] = solvent/oil: MAPEG 400 DO PEG ester
[2] = solvent/oil: Supernatant of soybean oil containing isotretinoin (40 mg isotretinoin particles in 1 gram of oil, particles removed by centrifugation)

Solubility (solvent/oil: Crodamol EO)	Solubility (solvent/oil: Crodamol GTCC-PN)	Solubility (solvent/oil: Crovol A40)	Solubility (solvent/oil: Ethanol)	Solubility [1]	Solubility (solvent/oil: Myvacet 9-45K)	Solubility (solvent/oil: Soybean oil)	Solubility [2]	Structure (SMILES)
14.42 mg drug/g solvent or oil	17.94 mg drug/g solvent or oil	15.85 mg drug/g solvent or oil	49.46 mg drug/g solvent or oil	9.34 mg drug/g solvent or oil	14.47 mg drug/g solvent or oil	6.41 mg drug/g solvent or oil	3.92 mg drug/g solvent or oil	C#C[C@]1(OC(C)=O)CC[C@H]2[C@@H]3CCC4=CC(=O)CC[C@@H]4[C@H]3CC[C@@]21C [Norethindrone Acetate, norethindrone acetate]
2.6 mg drug/g solvent or oil	3.4 mg drug/g solvent or oil	6.7 mg drug/g solvent or oil	20.5 mg drug/g solvent or oil	9.5 mg drug/g solvent or oil	4.3 mg drug/g solvent or oil	1.9 mg drug/g solvent or oil	0.802 mg drug/g solvent or oil	C#C[C@]1(OC(C)=O)CC[C@H]2[C@@H]3CCC4=CC(=NO)CC[C@@H]4[C@H]3CC[C@@]21CC (mixture of isomers) [Norgestimate, norgestimate]
12.94 mg drug/g solvent or oil	12.03 mg drug/g solvent or oil	21.37 mg drug/g solvent or oil	206 mg drug/g solvent or oil	12.08 mg drug/g solvent or oil	18.08 mg drug/g solvent or oil	5.32 mg drug/g solvent or oil	2.89 mg drug/g solvent or oil	C#C[C@]1(O)CC[C@H]2[C@@H]3CCc4cc(O)ccc4[C@H]3CC[C@@]21C [Ethinyl estradiol, ethinyl estradiol]
